Test results from patent US4217274A, “Methoxyethoxymethyl esters of penicillins” (Bristol-Myers Company, priority 1978, dated 1980).
≈ marks a conversion by molar mass, not a printed value. Where two headings read alike, the source gives them in different places.

Columns and labels:
[1] = system: S. marcescens; assay: MIC, antibiotic dilution technique (agar), Table 4; type: cell-based; settings: Serratia marcescens
Text: (§1) Bacteria. The organisms, preponderantly of recent clinical origin, were obtained from numerous sources of broad geographical distribution. Obligate anaerobes were maintained in Egg Meat Medium (Difco); Mycobacterium was stored on Lowenstein Medium (Jensen Modification; Difco). The techniques of storing all other organisms have been described previously [Leitner et al., BL-S640, A Cephalosporin with a Broad Spectrum of Antibacterial Activity: Properties in vitro, Antimicrob. Agents Chemother., 7, 298-305 (1975)].
(§2) Antibiotic spectrum. The growth-inhibitory activity of the compounds was determined by the antibiotic dilution technique. Procedures were as follows:
(§3) Aerobic organisms (excluding Mycobacterium). Except for Haemophilus and Neisseria, the assay was performed in Mueller-Hinton Medium (Difco). For fastidious organisms, i.e., Streptococcus, Listeria, Pasteurella, Bordetella and Vibrio, the medium was supplemented with 4% defibrinated sheep blood. The antibiotic susceptibility of Haemophilus and Neisseria was determined in GC Medium Base (BBL) supplemented with 1% Hemoglobin (BBL) and 1% Isovitalex (BBL).
(§4) Overnight broth cultures of an exponentially growing culture (Neisseria) served as the source of inoculum. A volume of approximately 0.003 ml. of the undiluted or diluted culture was applied to the surface of the antibiotic-containing agar plates with the inoculator of Steers et al., An Inocula Replicating Apparatus for Routine Testing of Bacterial Susceptibility to Antibiotics, Antibiot. Chemother., 9, 307-311, (1959). Cultures of Neisseria, Streptococcus pneumoniae, S. viridans and S. pyogenes were used without dilution; those of all other organisms were diluted 100-fold. The inoculum contained about 10^3 viable cells for Neisseria, 10^5 for S. pneumoniae and S. pyogenes, 10^6 for S. viridans and 10^4 for all other species.

[2] = system: S. faecalis; assay: MIC, antibiotic dilution technique (agar), Table 4; type: cell-based; settings: Enterococcus faecalis; Table 4, 6 strains, geometric mean where applicable
Text: as §1, §2, §3, §4

[3] = system: S. pyogenes; assay: MIC, antibiotic dilution technique (agar), Table 4; type: cell-based; settings: Streptococcus pyogenes; Table 4, 6 strains, geometric mean where applicable
Text: as §1, §2, §3, §4

[4] = system: Streptococcus sp. (β-hemolytic); assay: MIC, antibiotic dilution technique (agar), Table 4; type: cell-based; settings: Table 4, 6 strains, geometric mean where applicable
Text: as §1, §2, §3, §4

[5] = system: S. aureus (lacking penase); assay: MIC, antibiotic dilution technique (agar), Table 4; type: cell-based; settings: Staphylococcus aureus; Table 4, 6 strains, geometric mean where applicable
Text: as §1, §2, §3, §4

[6] = system: K. pneumoniae; assay: MIC, antibiotic dilution technique (agar), Table 4; type: cell-based; settings: Klebsiella pneumoniae
Text: as §1, §2, §3, §4

[7] = system: P. rettgeri; assay: MIC, antibiotic dilution technique (agar), Table 4; type: cell-based; settings: Providencia rettgeri
Text: as §1, §2, §3, §4

[8] = system: S. viridans; assay: MIC, antibiotic dilution technique (agar), Table 4; type: cell-based; settings: Streptococcus viridans
Text: as §1, §2, §3, §4

[9] = system: E. Coli; assay: MIC, antibiotic dilution technique (agar), Table 4; type: cell-based; settings: Escherichia coli
Text: as §1, §2, §3, §4

[10] = system: p. vulgaris; assay: MIC, antibiotic dilution technique (agar), Table 4; type: cell-based; settings: Proteus vulgaris; Table 4, 2 strains, geometric mean where applicable
Text: as §1, §2, §3, §4

[11] = system: P. mirabilis; assay: MIC, antibiotic dilution technique (agar), Table 4; type: cell-based; settings: Proteus mirabilis
Text: as §1, §2, §3, §4

[12] = system: E. cloacae; assay: MIC, antibiotic dilution technique (agar), Table 4; type: cell-based; settings: Enterobacter cloacae; Table 4, 2 strains, geometric mean where applicable
Text: as §1, §2, §3, §4

[13] = system: S. pneumoniae; assay: MIC, antibiotic dilution technique (agar), Table 4; type: cell-based; settings: Streptococcus pneumoniae; Table 4, 7 strains, geometric mean where applicable
Text: as §1, §2, §3, §4

[14] = system: Ps. aeruginosa; assay: MIC, antibiotic dilution technique (agar); type: cell-based; settings: Pseudomonas aeruginosa
Text: as §1, §2, §3, §4

[15] = system: Pr. rettgeri; assay: MIC, antibiotic dilution technique (agar); type: cell-based; settings: Providencia rettgeri
Text: as §1, §2, §3, §4

[16] = system: S. aureus Meth-Res.; assay: MIC, antibiotic dilution technique (agar); type: cell-based; settings: Staphylococcus aureus
Text: as §1, §2, §3, §4

[17] = system: Str. faecalis; assay: MIC, antibiotic dilution technique (agar); type: cell-based; settings: Enterococcus faecalis
Text: as §1, §2, §3, §4

[18] = system: Pr. morganii; assay: MIC, antibiotic dilution technique (agar); type: cell-based; settings: Morganella morganii
Text: as §1, §2, §3, §4

[19] = system: K. pneumoniae; assay: MIC, antibiotic dilution technique (agar); type: cell-based; settings: Klebsiella pneumoniae, read-out: MIC
Text: as §1, §2, §3, §4

[20] = system: Pr. vulgaris; assay: MIC, antibiotic dilution technique (agar); type: cell-based; settings: Proteus vulgaris
Text: as §1, §2, §3, §4

[21] = system: Pr. mirabilis; assay: MIC, antibiotic dilution technique (agar); type: cell-based; settings: Proteus mirabilis
Text: as §1, §2, §3, §4

[22] = system: S. aureus; assay: MIC, antibiotic dilution technique (agar); type: cell-based; settings: Staphylococcus aureus
Text: as §1, §2, §3, §4

[23] = system: Ser. marcescens; assay: MIC, antibiotic dilution technique (agar); type: cell-based; settings: Serratia marcescens
Text: as §1, §2, §3, §4

[24] = system: Ent. cloacae; assay: MIC, antibiotic dilution technique (agar); type: cell-based; settings: Enterobacter cloacae, read-out: MIC
Text: as §1, §2, §3, §4

[25] = system: S. aureus Pen-Res.; assay: MIC, antibiotic dilution technique (agar); type: cell-based; settings: Staphylococcus aureus
Text: as §1, §2, §3, §4

[26] = system: E. Coli; assay: MIC, antibiotic dilution technique (agar); type: cell-based; settings: Escherichia coli
Text: as §1, §2, §3, §4

[27] = system: Str. pneumoniae; assay: MIC, antibiotic dilution technique (agar); type: cell-based; settings: Streptococcus pneumoniae
Text: as §1, §2, §3, §4

[28] = system: Str. pyogenes; assay: MIC, antibiotic dilution technique (agar); type: cell-based, S. pyogenes; settings: Streptococcus pyogenes
Text: as §1, §2, §3, §4

[29] = Mouse blood levels after oral administration (disc diffusion bioassay, Bacillus subtilis); settings: in vivo, 100 mg/kg

## CC1(C)S[C@@H]2[C@H](NC(=O)[C@H](N)c3ccccc3)C(=O)N2[C@H]1C(=O)O [Ampicillin, ampicillin]
[1]; 1 strain (first line), read-out: MIC
  MIC: 63 µg/mL (≈ 180 µM)
[1]; 1 strain (second line)
  MIC: > 125 µg/mL
[2]
  MIC: 1 µg/mL (≈ 2.86 µM)
[3]
  MIC: 0.016 µg/mL (≈ 0.0458 µM)
[4]
  MIC: 0.063 µg/mL (≈ 0.18 µM)
[5]
  MIC: 0.07 µg/mL (≈ 0.2 µM)
[6]
  MIC: > 125 µg/mL
[6]; Table 4, K. pneumoniae, 1 strain (first line), read-out: MIC
  MIC: 32 µg/mL (≈ 91.6 µM)
[7]; Table 4, P. retgeri, 2 strains (third line), geometric mean where applicable
  MIC: 32 µg/mL (≈ 91.6 µM)
[7]; Table 4, P. rettgeri, 1 strain (first line)
  MIC: 0.13 µg/mL (≈ 0.372 µM)
[7]; Table 4, P. rettgeri, 1 strain (second line)
  MIC: 4 µg/mL (≈ 11.4 µM)
[8]; Table 4, S. viridans, 1 strain (second line)
  MIC: 0.063 µg/mL (≈ 0.18 µM)
[8]; Table 4, S. viridans, 3 strains, geometric mean where applicable
  MIC: 0.05 µg/mL (≈ 0.143 µM)
[8]; Table 4, s. viridans, 1 strain (third line)
  MIC: 0.35 µg/mL (≈ 1 µM)
[9]; 1 strain (first line)
  MIC: 0.5 µg/mL (≈ 1.43 µM)
[9]; 1 strain (fourth line)
  MIC: > 125 µg/mL
[9]; 1 strain (third line)
  MIC: 63 µg/mL (≈ 180 µM)
[9]; 3 strains (second line), geometric mean where applicable
  MIC: 2.5 µg/mL (≈ 7.15 µM)
[10]
  MIC: 0.35 µg/mL (≈ 1 µM)
[11]
  MIC: > 125 µg/mL
[11]; Table 4, P. mirabilis, 4 strains, geometric mean where applicable, read-out: MIC
  MIC: 2 µg/mL (≈ 5.72 µM)
[12]
  MIC: 63 µg/mL (≈ 180 µM)
[13]
  MIC: 0.02 µg/mL (≈ 0.0572 µM)
[14]; Table 1, Ps. aeruginosa, first line, read-out: MIC
  MIC: 63 µg/mL (≈ 180 µM)
[14]; Table 1, Ps. aeruginosa, second line
  MIC: > 125 µg/mL
[15]; Table 1, Pr. rettgeri
  MIC: 8 µg/mL (≈ 22.9 µM)
[16]; Table 1, S. aureus Meth-Res.
  MIC: 16 µg/mL (≈ 45.8 µM)
[17]; Table 1, Str. faecalis
  MIC: 0.13 µg/mL (≈ 0.372 µM)
[18]
  MIC: 125 µg/mL (≈ 358 µM)
[19]; Table 1, K. pneumoniae, first line
  MIC: 63 µg/mL (≈ 180 µM)
[19]; Table 1, K. pneumoniae, second line
  MIC: 32 µg/mL (≈ 91.6 µM)
[20]; Table 1, Pr. vulgaris
  MIC: 0.13 µg/mL (≈ 0.372 µM)
[21]; Table 1, Pr. mirabilis
  MIC: 0.06 µg/mL (≈ 0.172 µM)
[22]; Table 1, S. aureus
  MIC: 0.03 µg/mL (≈ 0.0859 µM)
[22]; Table 1, S. aureus + 50% serum
  MIC: 0.06 µg/mL
[23]; Table 1, Ser. marcescens
  MIC: 16 µg/mL (≈ 45.8 µM)
[24]; Table 1, Ent. cloacae, first line
  MIC: 32 µg/mL (≈ 91.6 µM)
[24]; Table 1, Ent. cloacae, second line
  MIC: 32 µg/mL (≈ 91.6 µM)
[25]
  MIC: 125 µg/mL (≈ 358 µM)
[26]; Table 1, E. Coli, first line
  MIC: 1 µg/mL (≈ 2.86 µM)
[26]; Table 1, E. Coli, second line
  MIC: 63 µg/mL (≈ 180 µM)
[27]; Table 1, Str. pneumoniae
  MIC: 0.004 µg/mL (≈ 0.0114 µM)
[28]; Table 1, Str. pyogenes
  MIC: 0.008 µg/mL (≈ 0.0229 µM)
[29]
  concentration at 0.25 h: 3500 ng/mL
  concentration at 0.5 h: 6600 ng/mL
  concentration at 1 h: 6800 ng/mL
  concentration at 1.5 h: 4300 ng/mL
  concentration at 2 h: 2500 ng/mL
  concentration at 3 h: 1100 ng/mL

## COCCOCOC(=O)[C@@H]1N2C(=O)[C@@H](N3C(=O)[C@@H](c4ccc(O)cc4)NC3(C)C)[C@H]2SC1(C)C [RN-1493, Methoxyethoxymethyl Ester of Heta-Amoxicillin]
[14]; Table 2, Ps. aeruginosa, first line, read-out: MIC
  MIC: 63 µg/mL (≈ 128 µM)
[14]; Table 2, Ps. aeruginosa, second line, read-out: MIC
  MIC: 63 µg/mL (≈ 128 µM)
[15]; Table 2, Pr. rettgeri
  MIC: 32 µg/mL (≈ 64.8 µM)
[16]; Table 2, S. aureus Meth-Res.
  MIC: 63 µg/mL (≈ 128 µM)
[17]; Table 2, Str. faecalis
  MIC: 0.5 µg/mL (≈ 1.01 µM)
[18]; Table 2, Pr. morganii, read-out: MIC
  MIC: 16 µg/mL (≈ 32.4 µM)
[19]; Table 2, K. pneumoniae, first line
  MIC: 63 µg/mL (≈ 128 µM)
[19]; Table 2, K. pneumoniae, second line
  MIC: 63 µg/mL (≈ 128 µM)
[20]; Table 2, Pr. vulgaris
  MIC: 0.5 µg/mL (≈ 1.01 µM)
[21]; Table 2, Pr. mirabilis
  MIC: 0.5 µg/mL (≈ 1.01 µM)
[22]; Table 2, S. aureus
  MIC: 0.06 µg/mL (≈ 0.122 µM)
[22]; Table 2, S. aureus + 50% serum
  MIC: 0.25 µg/mL
[23]; Table 2, Ser. marcescens
  MIC: 32 µg/mL (≈ 64.8 µM)
[24]; Table 2, Ent. cloacae, first line
  MIC: 63 µg/mL (≈ 128 µM)
[24]; Table 2, Ent. cloacae, second line
  MIC: 63 µg/mL (≈ 128 µM)
[25]; Table 2, S. aureus Pen-Res., read-out: MIC
  MIC: 125 µg/mL (≈ 253 µM)
[26]; Table 2, E. coli, first line
  MIC: 2 µg/mL (≈ 4.05 µM)
[26]; Table 2, E. coli, second line
  MIC: 63 µg/mL (≈ 128 µM)
[27]; Table 2, Str. pneumoniae
  MIC: 0.004 µg/mL (≈ 0.0081 µM)
[28]; Table 2, Str. pyogenes
  MIC: 0.008 µg/mL (≈ 0.0162 µM)
